According to patent US12077503B2, “Substituted cyclic amides and their use as herbicides” (FMC CORPORATION, priority 2015, dated 2024):
Read-outs that look alike come from different tables or passages of the source.

Tests used:
Type in all cases: in vivo
Kochia (Kochia scoparia) = assay: Test A preemergence; conditions: Bassia scoparia, pre-emergence, 240 h, read-out: Plant response rating, Kochia; for pest or weed control at 125 g/ha: 125 g ai/ha; for pest or weed control at 500 g/ha: 500 g ai/ha
Summary of the method: (§1)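 Each rating is a visual injury score from 0 to 100 given about 10 d after treatment, judged against untreated controls kept alongside in the greenhouse. In loam soil–sand blend, seeds got a preemergence directed soil spray, while postemergence plants were 2 to 10 cm tall at spraying.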

[1] = system: barnyardgrass (Echinochloa crus-galli); assay: Test A preemergence; conditions: Echinochloa crus-galli, pre-emergence, 240 h, read-out: Plant response rating, Barnyardgrass; for pest or weed control at 125 g/ha: 125 g ai/ha; for pest or weed control at 500 g/ha: 500 g ai/ha
Summary of the method: as §1

[2] = system: giant foxtail (Setaria faberii); assay: Test A preemergence; conditions: Setaria faberi, pre-emergence, 240 h, read-out: Plant response rating, Foxtail, Giant; for pest or weed control at 125 g/ha: 125 g ai/ha; for pest or weed control at 500 g/ha: 500 g ai/ha
Summary of the method: as §1

[3] = system: pigweed (Amaranthus retroflexus); assay: Test A preemergence; conditions: Amaranthus retroflexus, pre-emergence, 240 h, read-out: Plant response rating, Pigweed; for pest or weed control at 125 g/ha: 125 g ai/ha; for pest or weed control at 500 g/ha: 500 g ai/ha
[4] = system: ragweed (common ragweed, Ambrosia elatior); assay: Test A preemergence; conditions: Ambrosia artemisiifolia, pre-emergence, 240 h, read-out: Plant response rating, Ragweed; for pest or weed control at 125 g/ha: 125 g ai/ha; for pest or weed control at 500 g/ha: 500 g ai/ha
Summary of the method: as §1

[5] = system: ryegrass, Italian (Italian ryegrass, Lolium multiflorum); assay: Test A preemergence; conditions: Lolium multiflorum, pre-emergence, 240 h, read-out: Plant response rating, Ryegrass, Italian; for pest or weed control at 125 g/ha: 125 g ai/ha
Summary of the method: as §1

[6] = system: blackgrass (Alopecurus myosuroides); assay: Test A postemergence; conditions: Alopecurus myosuroides, post-emergence, 240 h; for pest or weed control at 125 g/ha: 125 g ai/ha
Summary of the method: as §1

[7] = system: giant foxtail (Setaria faberii); assay: Test A postemergence; conditions: Setaria faberi, post-emergence, 240 h; for pest or weed control at 125 g/ha: 125 g ai/ha; for pest or weed control at 500 g/ha: 500 g ai/ha, visual injury, approx. 10 d
Summary of the method: as §1

[8] = system: ryegrass, Italian (Italian ryegrass, Lolium multiflorum); assay: Test A postemergence; conditions: Lolium multiflorum, post-emergence, 240 h; for pest or weed control at 125 g/ha: 125 g ai/ha
Summary of the method: as §1

[9] = system: barnyardgrass (Echinochloa crus-galli); assay: Test B flooded paddy test; conditions: Echinochloa crus-galli, Flood, 250 g ai/ha
Summary of the method: (§2)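 Compound goes directly into floodwater once pots are flooded 3 cm above soil, targeting plants at two leaves; the water depth is then held for the test duration. Plants sit 13–15 d in a greenhouse and are rated visually, 100 denoting complete control.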

[10] = system: ducksalad (Heteranthera limosa); assay: Test B flooded paddy test; conditions: Heteranthera limosa, Flood, 250 g ai/ha
Summary of the method: as §2

rice (Oryra sativa) = assay: Test B flooded paddy test; conditions: Oryza sativa, Flood, 250 g ai/ha
Summary of the method: as §2

[11] = system: sedge, umbrella (small-flower umbrella sedge, Cyperus difformis); assay: Test B flooded paddy test; conditions: Cyperus difformis, Flood, 250 g ai/ha
Summary of the method: as §2

[12] = preemergence, visual rating after approx. 10 d, 0 to 100 scale where 0 is no effect and 100 is complete control
[13] = preemergence, 0 to 100 scale, 0 = no effect, 100 = complete control
[14] = preemergence, 0 to 100 scale (0 no effect, 100 complete control)
[15] = Preemergence, 0 to 100 scale (0 no effect, 100 complete control)
[16] = Postemergence, visual rating about 10 d after treatment, read-out: Foxtail, Giant plant response rating (0 to 100 scale)
[17] = Postemergence, 0 to 100 scale (0 no effect, 100 complete control), read-out: Plant response rating, Foxtail, Giant
[18] = 360 h, visually evaluated after 13 to 15 d, read-out: Plant response rating, Barnyardgrass (0 to 100 scale where 0 is no effect and 100 is complete control)
[19] = 360 h, visually evaluated after 13 to 15 d, read-out: Plant response rating, Ducksalad (0 to 100 scale where 0 is no effect and 100 is complete control)
[20] = 360 h, visually evaluated after 13 to 15 d, read-out: Plant response rating, Rice (0 to 100 scale where 0 is no effect and 100 is complete control)
[21] = 360 h, visually evaluated after 13 to 15 d, read-out: Plant response rating, Sedge, Umbrella (0 to 100 scale where 0 is no effect and 100 is complete control)

| Compound | pest or weed control at 500 g/ha [1, 14] | pest or weed control at 125 g/ha [1, 15] | pest or weed control at 500 g/ha [2, 14] | pest or weed control at 125 g/ha [2, 15] | pest or weed control at 500 g/ha [3, 14] | pest or weed control at 125 g/ha [3, 15] | pest or weed control at 125 g/ha [7, 16] | pest or weed control at 500 g/ha [7, 17] | pest or weed control at 250 g/ha [9, 18] | pest or weed control at 250 g/ha [10, 19] | pest or weed control at 250 g/ha (rice (Oryra sativa); [20]) | pest or weed control at 250 g/ha [11, 21] | other results |
| --- | --- | --- | --- | --- | --- | --- | --- | --- | --- | --- | --- | --- | --- |
| CN1C[C@H](c2nccs2)[C@@H](C(=O)Nc2ccccc2F)C1=O [Compound 773] | – | – | – | – | – | – | – | – | – | – | – | – | pest or weed control at 125 g/ha (Kochia (Kochia scoparia); [12]): 0%; pest or weed control at 500 g/ha (Kochia (Kochia scoparia); [13]): 0%; pest or weed control at 125 g/ha [1, 12]: 0%; pest or weed control at 500 g/ha [1, 13]: 0%; pest or weed control at 125 g/ha [2, 12]: 0%; pest or weed control at 500 g/ha [2, 13]: 0%; pest or weed control at 125 g/ha [3, 12]: 0%; pest or weed control at 500 g/ha [3, 13]: 0%; pest or weed control at 125 g/ha [4, 12]: 0%; pest or weed control at 500 g/ha [4, 13]: 0%; pest or weed control at 125 g/ha [5, 12]: 0%; pest or weed control at 125 g/ha ([6]; postemergence, visual injury after approximately 10 d, 0 to 100 scale (0 no effect, 100 complete control), read-out: Plant response rating, Blackgrass): 0%; pest or weed control at 125 g/ha ([7]; postemergence, visual injury after approximately 10 d, 0 to 100 scale (0 no effect, 100 complete control), read-out: Plant response rating, Foxtail, Giant): 0%; pest or weed control at 125 g/ha ([8]; postemergence, visual injury after approximately 10 d, 0 to 100 scale (0 no effect, 100 complete control), read-out: Plant response rating, Ryegrass, Italian): 0%; pest or weed control at 250 g/ha ([9]; scale of 0 to 100 where 0 is no effect and 100 is complete control, read-out: Barnyardgrass plant response rating): 0%; pest or weed control at 250 g/ha ([10]; scale of 0 to 100 where 0 is no effect and 100 is complete control, read-out: Ducksalad plant response rating): 0%; pest or weed control at 250 g/ha (rice (Oryra sativa); scale of 0 to 100 where 0 is no effect and 100 is complete control, read-out: Rice plant response rating): 0%; pest or weed control at 250 g/ha ([11]; scale of 0 to 100 where 0 is no effect and 100 is complete control, read-out: Sedge, Umbrella plant response rating): 0% |
| N#Cc1ccc(NC(=O)C2C(=O)NCC2c2ccccc2)cc1 (stereo not shown) [Compound 1355] | 0% | 0% | 0% | 0% | 0% | 0% | 0% | 0% | – | – | – | – | – |
| O=C1NCC(c2ccccc2)C1C(=O)Nc1cccnc1 (stereo not shown) [Compound 1356] | 0% | 0% | 0% | 0% | 0% | 0% | 0% | 0% | – | – | – | – | – |
| O=C1NCC(c2ccccc2)C1C(=O)Nc1ccccc1Oc1ccccc1 (stereo not shown) [Compound 1357] | 0% | 0% | 0% | 0% | 0% | 0% | 0% | 0% | – | – | – | – | – |
| O=C1NCC(c2ccccc2)C1C(=O)Nc1ccccc1 (stereo not shown) [Compound 1358] | 0% | 0% | 0% | 0% | 0% | 0% | 0% | 0% | 0% | 0% | 0% | 0% | – |
| CN1C[C@H](c2ccc(C(F)(F)F)cc2)[C@@H](C(=O)Nc2cccc(F)c2C#N)C1=O [Compound 1380] | 100% | 90% | 100% | 100% | 90% | 80% | 90% | 90% | 60% | 100% | 0% | 0% | pest or weed control at 500 g/ha (Kochia (Kochia scoparia); [14]): 90%; pest or weed control at 125 g/ha (Kochia (Kochia scoparia); [15]): 80%; pest or weed control at 500 g/ha [4, 14]: 80%; pest or weed control at 125 g/ha [4, 15]: 70%; pest or weed control at 500 g/ha ([5]; 500 g ai/ha, preemergence, 0 to 100 scale (0 no effect, 100 complete control)): 50%; pest or weed control at 125 g/ha [5, 15]: 50%; pest or weed control at 125 g/ha ([6]; Postemergence, visual rating about 10 d after treatment, read-out: Blackgrass plant response rating (0 to 100 scale)): 40%; pest or weed control at 500 g/ha ([6]; Postemergence, 500 g ai/ha, visual injury, 0 to 100 scale (0 no effect, 100 complete control), approx. 10 d, read-out: Plant response rating, Blackgrass): 60%; pest or weed control at 125 g/ha ([8]; Postemergence, visual rating about 10 d after treatment, read-out: Ryegrass, Italian plant response rating (0 to 100 scale)): 50%; pest or weed control at 500 g/ha ([8]; Postemergence, 500 g ai/ha, visual injury, 0 to 100 scale (0 no effect, 100 complete control), approx. 10 d, read-out: Plant response rating, Ryegrass, Italian): 60% |
